Data: patent publication US9700057B2, “Bradyrhizobium strains” (NOVOZYMES BIOAG A/S, priority 2011, dated 2017)

Test system: parental strain USDA 532C
Assay: Kill rate of USDA 532C using the mutagen ethyl methanesulfonate (EMS)
Assay type: cell-based, Bradyrhizobia japonicum
Method: The following experiment(s) were performed to determine the application rate of the mutagen, ethyl methanosulfonate (EMS) that would give a 99.9-99.99 percent kill rate for parental strain USDA 532C. This rate determination will become part of the mutagenesis protocol used to generate desiccation-resistant putative mutants although the method of mutagenesis may evolve for efficiency.
Parental strain USDA 532C was grown in six 10 ml YEM disposable culture tubes for two days and 5 ml of the culture was inoculated into four 250 ml flasks containing 50 ml YEM medium. The flasks were incubated for two days at 30° C. shaker. The culture from the flasks were subsequently centrifuged in 50 ml disposable sterile tubes at 8,000 rpm for ten minutes in a Sorvall RC 6 Plus® centrifuge and combined into one tube. The pellet was re-suspended in 4 ml of fresh YEM medium and separated into four 1.5 ml microcentrifuge tubes. The tubes would each represent different application rates used for the mutagenesis process.
Once the culture have been aliquoted into separate tubes and the mutagen EMS (Sigma, C3H8O3S, FW 124.16, #M0880-1G) added to each tube, the tubes were vortexed vigorously and placed in an empty 250 ml flask. The flask containing the reaction tubes were incubated for 30 minutes at 30° C. in a shaker. Immediately following the incubation period, the tubes were washed five times with 0.16M sodium thiosulfate (STS, Fisher Chemical, Na2S2O3*5H2O, FW 248.18, #S445-3)) solution to inactivate the mutagen. After washing, the cells in the reaction tubes were sheared with 21 gauge syringe needle (BD 1 ml 21G1 Latex Free Syringe PrecisionGlide® Needle, 0.8 mm×25 mm, #309624) and dilutions were completed and plated on YEMA plates. The cell counts were available after five days incubation at 30° C. and the percent kill of the EMS application rate was calculated. To calculate the percent kill rate for each application rate, the following equation was used: ([cell count 0 μl EMS (control)−(cell count of μl EMS (treatment))÷cell count 0 μl EMS (control)]×100%). All other experiments following this experiment used this equation to calculate the percent kill rate.

[1] = Table 12, 25 μl EMS, decreased washing
[2] = Table 14 (repeat of Table 13), 40 μl EMS
[3] = Table 14 (repeat of Table 13), 45 μl EMS
[4] = Table 15 (repeat of Table 14), 45 μl EMS
[5] = Table 15 (repeat of Table 14), 50 μl EMS

Compound: CCOS(C)(=O)=O [EMS, ethyl methanesulfonate]
- Cell counts (approximate cfu/ml) (Table 10, 10 μl EMS, 30 minutes at 30° C.): no difference
- Cell counts (approximate cfu/ml) (Table 11, 15 μl EMS): 2.24 × 10^9 cfu/ml
- Percent kill rate (Table 11, 15 μl EMS): 10.17%
- Cell counts (approximate cfu/ml) (Table 11, 25 μl EMS): 1.72 × 10^9 cfu/ml
- Percent kill rate (Table 11, 25 μl EMS): 30.92%
- Cell counts (approximate cfu/ml) (Table 11, 50 μl EMS): 1.67 × 10^1 cfu/ml
- Cell counts (approximate cfu/ml) [1]: 1.27 × 10^9 cfu/ml
- Percent kill rate [1]: 73.09%
- Cell counts (approximate cfu/ml) (Table 12, 35 μl EMS): 5.37 × 10^8 cfu/ml
- Percent kill rate (Table 12, 35 μl EMS): 88.58%
- Cell counts (approximate cfu/ml) (Table 12, 50 μl EMS): 2.93 × 10^2 cfu/ml
- Percent kill rate (Table 12, 50 μl EMS): 100%
- Cell counts (approximate cfu/ml) (Table 13, 40 μl EMS): 6.97 × 10^8 cfu/ml
- Percent kill rate (Table 13, 40 μl EMS): 82.26%
- Cell counts (approximate cfu/ml) (Table 13, 45 μl EMS): 8.57 × 10^7 cfu/ml
- Percent kill rate (Table 13, 45 μl EMS): 97.82%
- Cell counts (approximate cfu/ml) (Table 13, 50 μl EMS): 2.65 × 10^5 cfu/ml
- Percent kill rate (Table 13, 50 μl EMS): 99.99%
- Cell counts (approximate cfu/ml) [2]: 1.35 × 10^9 cfu/ml
- Percent kill rate [2]: 99.81%
- Cell counts (approximate cfu/ml) [3]: 5.27 × 10^8 cfu/ml
- Percent kill rate [3]: 99.93%
- Cell counts (approximate cfu/ml) (Table 14 (repeat of Table 13), 50 μl EMS): 2.19 × 10^6 cfu/ml
- Cell counts (approximate cfu/ml) [4]: 3.33 × 10^4 cfu/ml
- Percent kill rate [4]: 99.98%
- Cell counts (approximate cfu/ml) [5]: 4.33 × 10^1 cfu/ml
- Percent kill rate [5]: 100%
